Values of other authors, collected in patent publication US20240226128A1, “NOVEL COMPOUNDS WITH DUAL INHIBITION ACTIVITY AGAINST SARS-COV-2 CRITICAL ENZYMES RDRP, MPRO AND HUMAN TMPRSS2” (priority 2022, published 2024).

Test system: COVID-19
Conditions: high-risk patient including different variants; cited from earlier work

Q: With `CC(C)C(=O)OC[C@H]1O[C@@H](n2ccc(NO)nc2=O)[C@H](O)[C@@H]1O` [Molnupiravir] as the compound, how does the “reduced risk of COVID-19 death” value read?
A: Its value is 50%.
